Data reported in PubChem BioAssay (NCI).
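Briefly, cells in 96-well plates were exposed to five compound concentrations for 48 h, and endpoints were estimated by linear interpolation. GI50 = concentration required for 50% inhibition of growth. At the TGI there is no net growth.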

Tests used:
Test in all cases: growth of human tumour cells (NCI), 48 h
786-0 renal = tested on: 786-0 renal
ACHN renal = tested on: ACHN renal
HL-60(TB) leukemia = tested on: HL-60(TB) leukemia
HS 578T breast = tested on: HS 578T breast
HT29 colon = tested on: HT29 colon
NCI-H460 lung = tested on: NCI-H460 lung
SK-MEL-28 melanoma = tested on: SK-MEL-28 melanoma
SW-620 colon = tested on: SW-620 colon
UACC-62 melanoma = tested on: UACC-62 melanoma
HOP-92 NSCLC = tested on: HOP-92 NSCLC

O=S(=O)(NC1CCCCC1)c1ccc2c(c1)OCCOCCOCCOCCO2
TGI (786-0 renal): > 100 µM | TGI (ACHN renal): > 100 µM | TGI (HL-60(TB) leukemia): > 100 µM | TGI (HS 578T breast): > 100 µM | TGI (HT29 colon): > 100 µM | TGI (NCI-H460 lung): > 100 µM | TGI (SK-MEL-28 melanoma): > 100 µM | TGI (SW-620 colon): > 100 µM | TGI (UACC-62 melanoma): > 100 µM

COc1ccc2c(c1)[n+](=O)c(C(=O)c1cccs1)c(C(F)(F)F)n2[O-]
GI50 (786-0 renal): 17 µM | TGI (786-0 renal): > 50 µM | GI50 (ACHN renal): 8.64 µM | TGI (ACHN renal): > 50 µM | GI50 (HL-60(TB) leukemia): 4.04 µM | TGI (HL-60(TB) leukemia): > 50 µM | GI50 (HOP-92 NSCLC): 7.91 µM | TGI (HOP-92 NSCLC): 49.5 µM | GI50 (HT29 colon): 8.65 µM | TGI (HT29 colon): > 50 µM | GI50 (NCI-H460 lung): 1.68 µM | TGI (NCI-H460 lung): 13.8 µM | GI50 (SK-MEL-28 melanoma): 16.3 µM | TGI (SK-MEL-28 melanoma): > 50 µM | GI50 (SW-620 colon): 8.43 µM | TGI (SW-620 colon): > 50 µM | GI50 (UACC-62 melanoma): 5.76 µM | TGI (UACC-62 melanoma): 19.5 µM

O=C(/C=C(\O)C(=O)O)/C=C(\O)c1ccccc1
GI50 (786-0 renal): > 1 µM | TGI (786-0 renal): > 100 µM | GI50 (ACHN renal): > 1 µM | TGI (ACHN renal): > 100 µM | GI50 (HL-60(TB) leukemia): > 1 µM | TGI (HL-60(TB) leukemia): > 100 µM | GI50 (HOP-92 NSCLC): > 1 µM | TGI (HOP-92 NSCLC): > 1 µM | GI50 (HT29 colon): > 1 µM | TGI (HT29 colon): > 100 µM | GI50 (NCI-H460 lung): > 1 µM | TGI (NCI-H460 lung): > 100 µM | GI50 (SK-MEL-28 melanoma): > 1 µM | TGI (SK-MEL-28 melanoma): > 1 µM | TGI (SW-620 colon): > 100 µM | GI50 (UACC-62 melanoma): > 1 µM | TGI (UACC-62 melanoma): > 100 µM

O=c1cc(-c2ccccn2)[nH]c2cccc(F)c12
TGI (786-0 renal): > 100 µM | TGI (ACHN renal): > 100 µM | TGI (HL-60(TB) leukemia): > 100 µM | TGI (HOP-92 NSCLC): > 100 µM | TGI (HT29 colon): > 100 µM | TGI (NCI-H460 lung): > 100 µM | TGI (SK-MEL-28 melanoma): > 100 µM | TGI (SW-620 colon): > 100 µM | TGI (UACC-62 melanoma): > 100 µM

COc1ccc2c(c1)/C(=C\c1ccncc1)C(=O)N2
GI50 (786-0 renal): 12.5 µM | TGI (786-0 renal): 29.3 µM | GI50 (ACHN renal): 4.41 µM | TGI (ACHN renal): 15.9 µM | GI50 (HL-60(TB) leukemia): 6.8 µM | TGI (HL-60(TB) leukemia): > 100 µM | GI50 (HOP-92 NSCLC): 22.4 µM | TGI (HOP-92 NSCLC): 98 µM | GI50 (HS 578T breast): 27.4 µM | TGI (HS 578T breast): 82.1 µM | GI50 (NCI-H460 lung): 6.68 µM | TGI (NCI-H460 lung): > 100 µM | GI50 (SW-620 colon): 10.4 µM | TGI (SW-620 colon): 43.8 µM | GI50 (UACC-62 melanoma): 4.46 µM | TGI (UACC-62 melanoma): 17.2 µM

COc1cc(CNc2nc3c(N)cc(C(F)(F)F)cc3nc2-c2ccccc2)cc(OC)c1OC
TGI (786-0 renal): > 100 µM | TGI (ACHN renal): > 100 µM | GI50 (HL-60(TB) leukemia): > 100 µM | TGI (HL-60(TB) leukemia): > 100 µM | TGI (HOP-92 NSCLC): > 100 µM | TGI (HT29 colon): > 100 µM | TGI (NCI-H460 lung): > 100 µM | TGI (SK-MEL-28 melanoma): > 100 µM | TGI (SW-620 colon): > 100 µM | TGI (UACC-62 melanoma): > 100 µM

C=C1CC(CC)(CCN2C(=O)c3ccccc3C2=O)OC1=O (stereo not drawn)
TGI (786-0 renal): 24.2 µM | TGI (ACHN renal): 28.6 µM | TGI (HL-60(TB) leukemia): > 100 µM | TGI (HT29 colon): 37.3 µM | TGI (NCI-H460 lung): > 100 µM | TGI (SW-620 colon): 22.9 µM | TGI (UACC-62 melanoma): 26.3 µM

COc1ccccc1N=Nc1c(-c2ccccc2)nn(C(=O)CC(=O)Nc2cccc(C)c2)c1-c1ccccc1
TGI (786-0 renal): > 100 µM | TGI (ACHN renal): > 100 µM | TGI (HL-60(TB) leukemia): 38 µM | TGI (HT29 colon): 33.3 µM | TGI (NCI-H460 lung): > 100 µM | TGI (SK-MEL-28 melanoma): > 100 µM | TGI (SW-620 colon): > 100 µM | TGI (UACC-62 melanoma): > 100 µM

C=CCn1c(=S)sc2c(C(=O)OCC)c3c(C)cc(C)cn3c2c1=O
TGI (786-0 renal): > 100 µM | TGI (ACHN renal): > 100 µM | TGI (HL-60(TB) leukemia): > 100 µM | TGI (HT29 colon): > 100 µM | TGI (NCI-H460 lung): > 100 µM | TGI (SK-MEL-28 melanoma): > 100 µM | TGI (SW-620 colon): > 100 µM | TGI (UACC-62 melanoma): > 100 µM

CC(C)N(C(=O)c1cccc(C(=O)N(C(C)C)C(C)C)c1)C(C)C
TGI (786-0 renal): > 100 µM | TGI (ACHN renal): > 100 µM | TGI (HL-60(TB) leukemia): > 100 µM | TGI (HOP-92 NSCLC): > 100 µM | TGI (HT29 colon): > 100 µM | TGI (NCI-H460 lung): > 100 µM | TGI (SK-MEL-28 melanoma): > 100 µM | TGI (SW-620 colon): > 100 µM | TGI (UACC-62 melanoma): > 100 µM

COc1ccc(-c2cc(=O)n(-c3nc4ccccc4[nH]3)[nH]2)cc1OC
GI50 (786-0 renal): 12.4 µM | TGI (786-0 renal): > 100 µM | GI50 (ACHN renal): 5.72 µM | TGI (ACHN renal): > 100 µM | GI50 (HL-60(TB) leukemia): 3.59 µM | TGI (HL-60(TB) leukemia): 19.6 µM | GI50 (HS 578T breast): 4 µM | TGI (HS 578T breast): 66.6 µM | GI50 (HT29 colon): 30.5 µM | TGI (HT29 colon): > 100 µM | GI50 (NCI-H460 lung): 3.91 µM | TGI (NCI-H460 lung): 68.3 µM | GI50 (SK-MEL-28 melanoma): 13.9 µM | TGI (SK-MEL-28 melanoma): > 100 µM | GI50 (SW-620 colon): 3.41 µM | TGI (SW-620 colon): > 100 µM | GI50 (UACC-62 melanoma): 3.79 µM | TGI (UACC-62 melanoma): 24.1 µM

N#C/C(=C1\SCC(=O)N1c1ccccc1)c1nc2ccccc2[nH]1
TGI (786-0 renal): > 100 µM | TGI (ACHN renal): > 100 µM | TGI (HL-60(TB) leukemia): > 100 µM | TGI (HOP-92 NSCLC): > 100 µM | TGI (HT29 colon): > 100 µM | TGI (NCI-H460 lung): > 100 µM | TGI (SK-MEL-28 melanoma): > 100 µM | TGI (SW-620 colon): > 100 µM | TGI (UACC-62 melanoma): > 100 µM

COC(=O)CCC(NC(=S)N/N=C(\C)c1ccc[nH]1)C(=O)OC (stereo not drawn)
TGI (786-0 renal): > 100 µM | TGI (ACHN renal): > 100 µM | TGI (HL-60(TB) leukemia): > 100 µM | TGI (HOP-92 NSCLC): > 100 µM | TGI (HT29 colon): > 100 µM | TGI (NCI-H460 lung): > 100 µM | TGI (SK-MEL-28 melanoma): > 100 µM | TGI (SW-620 colon): > 100 µM | TGI (UACC-62 melanoma): > 100 µM

O=c1cccccc1[O-].O=c1cccccc1[O-].O=c1cccccc1[O-].[Eu+3]
TGI (786-0 renal): > 100 µM | TGI (ACHN renal): > 100 µM | TGI (HL-60(TB) leukemia): 74.5 µM | TGI (HOP-92 NSCLC): > 100 µM | TGI (HT29 colon): > 100 µM | TGI (NCI-H460 lung): > 100 µM | TGI (SK-MEL-28 melanoma): > 100 µM | TGI (SW-620 colon): > 100 µM | TGI (UACC-62 melanoma): > 100 µM

[N-]=[N+]=NC(c1cn(C2CC(O)C(CO)O2)c(=O)[nH]c1=O)C(Cl)Br (stereo not drawn)
TGI (786-0 renal): > 100 µM | TGI (ACHN renal): > 100 µM | TGI (HL-60(TB) leukemia): > 100 µM | TGI (HOP-92 NSCLC): > 100 µM | TGI (HT29 colon): > 100 µM | TGI (NCI-H460 lung): > 100 µM | TGI (SK-MEL-28 melanoma): > 100 µM | TGI (SW-620 colon): > 100 µM

Cc1c(C(=O)C/C(=N/NC(=O)c2ccccc2)C(=O)Nc2ccc(Cl)cc2)[n+](=O)c2ccccc2n1[O-]
TGI (786-0 renal): > 100 µM | TGI (ACHN renal): > 100 µM | TGI (HL-60(TB) leukemia): 56.4 µM | TGI (HT29 colon): > 100 µM | TGI (NCI-H460 lung): > 100 µM | TGI (SK-MEL-28 melanoma): > 100 µM | TGI (SW-620 colon): > 100 µM

CCCn1c2c(c3c(O)cccc31)C(=O)c1ccccc1-2
GI50 (786-0 renal): 14.6 µM | TGI (786-0 renal): 52.2 µM | GI50 (ACHN renal): 14.9 µM | TGI (ACHN renal): 45.1 µM | GI50 (HS 578T breast): 33.1 µM | TGI (HS 578T breast): > 100 µM | GI50 (HT29 colon): 29.7 µM | TGI (HT29 colon): > 100 µM | GI50 (NCI-H460 lung): 22.1 µM | TGI (NCI-H460 lung): > 100 µM | GI50 (SK-MEL-28 melanoma): 10.4 µM | TGI (SK-MEL-28 melanoma): 39.1 µM | GI50 (SW-620 colon): > 100 µM | TGI (SW-620 colon): > 100 µM | GI50 (UACC-62 melanoma): 15.2 µM | TGI (UACC-62 melanoma): 69.3 µM

C[N+]1=c2c3cccc4cccc(c(=O)n2CC1)c43
TGI (786-0 renal): > 100 µM | TGI (ACHN renal): > 100 µM | TGI (HL-60(TB) leukemia): 46.3 µM | TGI (HOP-92 NSCLC): 61.8 µM | TGI (HT29 colon): 64.4 µM | TGI (NCI-H460 lung): 28.2 µM | TGI (SK-MEL-28 melanoma): 30.1 µM | TGI (SW-620 colon): > 100 µM | TGI (UACC-62 melanoma): 31.5 µM

CNC(=O)NCC1OC(n2cnc3c(NC(=O)Nc4ccccc4)ncnc32)C(O[Si](C)(C)C(C)(C)C)C1O[Si](C)(C)C(C)(C)C (stereo not drawn)
GI50 (786-0 renal): 2.04 µM | TGI (786-0 renal): 3.71 µM | GI50 (ACHN renal): 3.83 µM | TGI (ACHN renal): > 100 µM | GI50 (HOP-92 NSCLC): 1.56 µM | TGI (HOP-92 NSCLC): 5.16 µM | GI50 (HT29 colon): 2.02 µM | TGI (HT29 colon): 3.74 µM | GI50 (NCI-H460 lung): 1.72 µM | TGI (NCI-H460 lung): 3.49 µM | GI50 (UACC-62 melanoma): 3.98 µM | TGI (UACC-62 melanoma): 23.6 µM
